Like-named read-outs stand apart in the source and are kept apart here.
Legend:
[1] = Acute toxicity on mice (oral LD50); conditions: mouse, in vivo, 7 days observation, maximal dose 1000 mg/kg
Experimental: Mice belonging to the NMRI strain (body weight 20-25 g, both male and female) were used, 6 to 10 animals for each dose. The test compound was administered orally in a volume of 20 ml/kg. The applied maximal dose was 1000 mg/kg. […] The mice were kept in a plastic cage at room temperature. The animals got tap water and standard mouse fodder ad libitum. The toxicity data were determined by the aid of the method of Litchfield and Wilcoxon [Litchfield, J. T., Wilcoxon, F. W.: J. Pharmacol. Exp. Ther., 96, 99 (1949)].

shocks tolerated = experiment: Anxiolytic effect (Vogel et al.); assay type: in vivo, rat (male Wistar); conditions: ip, 2 h; rat, intraperitoneal, two hours before testing; read-out: Anxiolytic effect MED
Experimental: The anxiolytic effect was tested by using the method of Vogel et al. Male Wistar rats of 160-180 g bodyweight were kept free of food and drinking water for 24 and 48 hours, respectively. Test and carrier substances were administered intraperitoneally two hours before testing. Animals within the experimental chamber were provided with drinking water through an inserted tube. After the animals' each twenty lapping for water the device emitted a 2 mA intensity electric shock through the drinking tube. During 5 minutes the shocks tolerated by the animals in order to quench their thirst were counted. The effect of treatment was expressed as the % increase of the tolerated shocks. The minimum effective dose (MED) was determined for each test compound [Voqel, J. R., Beer, B., Clody, D. E.: Psychopharmacologia (Berl.) 21, 1 (1971)].

[2] = tested on: learned conditioned avoidance reflex; experiment: Antipsychotic effect: inhibition of conditioned avoidance reflex (shuttle box); assay type: in vivo, rat (male Wistar); conditions: 1 h, read-out: Conditioned reflex ID50
Experimental: The antipsychotic (neuroleptic) effect was measured by the inhibition of the learned conditioned avoidance reflex. The male Wistar rats used for the study were of 120-150 g bodyweight at the commencement of learning. […] In response to a suitable warning stimulus, in order to avoid the punishing (unconditioned) stimulus, animals within the box passed through the gate from one part over the other. The warning, i.e. conditioned stimulus (CS), a white light (1 Hz) blinking for 15 seconds, was applied at the place of the actual animal existence. The unconditioned stimulus (US), in form of 0.6 mA intensity electric shock, was randomly applied to the paw during the last 5 seconds of the conditioned stimulus. Animal's movement during the CS and US from one part of the box over the other, was defined as avoidance and escape responses, respectively. Both responses ceased the actual stimulus and stopped the trial. The time elapsed until the next trial (intertrial interval, ITI) was 15 seconds. While one experiment was carried out daily, an experiment consisted of 80 trials. Learning efficiency was expressed as percentage of the successful to the total avoidances. […] Dosing was carried out once a week, one hour before the measurement in the shuttle box.

catalepsy = experiment: Catalepsy; assay type: in vivo, rat (Wistar); conditions: rat; for Catalepsy MED: scored from 60 minutes after dosing, four hours
Experimental: The extrapyramidal syndrome, the most important side effect limiting the application of the neuroleptic drugs in man, can be produced in experimental animals in the form of catalepsy. Our experiments in 150-160 g Wistar rats were performed according to Morpurgo. The catalepsy, appearing 60 minutes after dosing, was scored as follows. Both forelegs of each animal were put for 10 seconds onto a rubber stopper of 3 cm height, then for additional 10 seconds onto a same stopper of 9 cm height. […] The procedure was repeated in each 30 minutes during four hours, obtaining scores proportional to the degree of the catalepsy. Results were used to calculate the minimum effective dose [MED, the lowest dose resulting statistically significant alteration, c.f.: Morpurgo, C.: Arch. Int.

hexobarbital narcosis = experiment: Hexobarbital narcosis potentiating effect on mice; assay type: in vivo, mouse; conditions: oral; for ED50: Mus musculus, 1 hour before hexobarbital 40 mg/kg i.v., sleeping time >2.5 times control, read-out: ED50 hexobarbital narcosis potentiation
Experimental: The hexobarbital narcosis potentiating effect was examined on mice. Groups consisting of 6 animals were used for each dose. The animals were treated orally with the test compound, whereby sleeping was induced 1 hour later by administering a 40 mg/kg i.v. dose of hexobarbital both to the test and control groups. […] ED50 values were calculated from the thus-transformed data [Kaergaard Nielsen C. et al., Arch. Int. Pharmacodyn. 2, 170 (1967)].

nervus ischiadicus = experiment: Local analgesic effect (Truant d'Amato); assay type: in vivo; conditions: 0.2 ml injected around nervus ischiadicus
Experimental: The test was carried out according to the method of Truant d'Amato. 0.2 ml of test material was injected around the nervus ischiadicus in the middle of femur with a needle of 1 cm length. The criterion of analgesic effect was the lack of the motoric control of foot muscles. The duration of effect was registered and the 50 percentile effective concentration (EC50) was calculated on the basis of the dose-effect curve. Lidocain was used as reference substance Truant d'Amato, A. P., Wiedling, S.: Acta Chir. Scand., 116, 351 (1958)].

[3] = tested on: experimental coronary insufficiency; experiment: Antianginal effect (glanduitrine-induced coronary insufficiency, Nieschultz); assay type: in vivo, rat (male); conditions: rat, glanduitrine 4 NE/kg i.v., T-wave; for inhibition in vivo at 2 mg/kg: Rat2, iv, read-out: Inhibition in a dose of 2 mg/kg
Experimental: The test was carried out on male rats weighing 180-220 g. The animals were narcotized with the aid of chloralose-urethane. ECG was registered by means of needle electrodes in standard II output. Antianginal effect was tested according to the method of Nieschultz. Experimental coronary insufficiency was induced by administering glanduitrine (4 NE/kg i.v.).

pentetrazole spasm = experiment: Anticonvulsive activity: pentetrazole spasm inhibiting test; assay type: in vivo, mouse (NMRI); conditions: Mus musculus; mice, oral, 1 hour before pentetrazole 125 mg/kg i.p.; read-out: Inhibition of pentetrazole spasm, ED50
Experimental: The pentetrazole spasm inhibiting test was performed according to the modified method of Benziger and Hans. Groups of mice consisting of 6 animals each, belonging to the NMRI strain (body weight: 20-25 g), were treated orally with the compound to be tested and the vehicle without active agent, respectively. I hour after the treatment a dosage of 125 mg/kg of pentetrazole was administered to each animal, intraperitoneally, and the tonic spasm of the lower limb extensor was recorded [Benziger, R., Hans, D.: Arch. Int. Pharmacodyn., 167, 245 (1967)].
The ED50 values were determined according to the method of Litchfield and Wilcoxon.

spontaneous motility = experiment: Spontaneous motility inhibiting activity (Dews equipment); assay type: in vivo; conditions: Mus musculus, 0.5 h; oral, beam interruptions within 30 minutes; read-out: Motility inhibiting activity ID50
Experimental: The spontaneous motility inhibiting activity was examined according to the method of Borsy et al. Groups consisting of 3 mice each were treated orally with different doses of the compounds to be tested, then the test animals were placed in a Dews equipment. In this equipment the number of interruptions of infrared beam within 30 minutes was counted. […] [Borsy, J., Csanyi, E., Lazar, I.: Arch. Int.. Pharmacodyn. 124, 1 (1960)].

[4] = tested on: acetic acid writhing reactions; experiment: Analgesic effect (acetic acid writhing, Newbould); assay type: in vivo, mouse (NMRI); conditions: Mus musculus, 1 h; mice, 0.75% acetic acid one hour after treatment; read-out: Analgesic effect ID50
Experimental: The characteristic "writhing reactions" were counted for a period of 5 minutes, starting from the fifth minute after challenge. […] Each group of animals consisted of at least 10 mice. […]

CNC1=Nc2ccc(Cl)cc2C(c2ccccc2)=[N+]([O-])C1 [Chlordiazepoxide, reference compound]
LD50 at 168 h [1]: 650 mg/kg | minimal effective dose (shocks tolerated): 2.5 mg/kg

CN(C)CCCN1c2ccccc2Sc2ccc(Cl)cc21 [Chlorpromazine, reference compound]
ED50 ([2]; Rattus norvegicus): 13.2 mg/kg | LD50 at 168 h [1]: 315 mg/kg | Therapeutic index (Catalepsy MED / Conditioned Reflex ID50) (catalepsy): 1.5 | Catalepsy MED (catalepsy): 20 mg/kg

CN(C)CCON=C1CCc2c1ccc1ccccc21 [Example 1, 3-[2-(N,N-Dimethylamino)-ethoxyimino]-2,3-dihydro-1H-benz[e]indene]
LD50 at 168 h [1]: 820 mg/kg | effect observed in the given dose, hexobarbital narcosis potentiation (hexobarbital narcosis; dose 200 mg/kg): 100%

c1ccc2c3c(ccc2c1)C(=NOCCN1CCCC1)CC3 [Example 7, 3-[2-(N-Pyrpolidinyl)-ethoxyimino]-2,3-dihydro-1H-benz[e]indene]
LD50 at 168 h [1]: 700 mg/kg | Local analgesic effect EC50 (nervus ischiadicus): 0.20%

c1ccc2c3c(ccc2c1)C(=NOCCN1CCCCC1)CC3 [Example 8, 3-[2-(N-Piperidinyl)-ethoxyimlno]-2,3-dihydro-1H-benz[e]indene]
LD50 at 168 h [1]: > 1000 mg/kg | inhibition in vivo at 2 mg/kg [3]: 56% | effect observed in the given dose, hexobarbital narcosis potentiation (hexobarbital narcosis; dose 100 mg/kg): 67%

c1ccc2c3c(ccc2c1)C(=NOCCCN1CCCCC1)CC3 [Example 9, 3-[3-(N-Piperidinyl)-propoxyimino]-2,3-dihydro-1H-benz[e]indene]
LD50 at 168 h [1]: 320 mg/kg | Local analgesic effect EC50 (nervus ischiadicus): 0.20%

c1ccc2c3c(ccc2c1)C(=NOCCN1CCOCC1)CC3 [Example 11, 3-[2-(N-Morpholinoethoxyimino)]-2,3-dihydro-1H-benz[e]indene]
ED50 (pentetrazole spasm): 84 mg/kg | LD50 at 168 h [1]: > 1000 mg/kg | inhibition in vivo at 2 mg/kg [3]: 54%

Clc1cccc(N2CCN(CCCON=C3CCc4c3ccc3ccccc43)CC2)c1 [Example 12, 3-{3-[4-(3-Chlorophenyl)-1-piperazinyl]-propoxyimino}-2,3-dihydro-1H-benz[e]indene]
ED50 (pentetrazole spasm): 30 mg/kg | LD50 at 168 h [1]: > 1000 mg/kg | inhibition in vivo at 2 mg/kg [3]: 56% | ED50 (spontaneous motility): ~100 mg/kg | effect observed in the given dose, hexobarbital narcosis potentiation (hexobarbital narcosis; dose 200 mg/kg): 83%

OCCN1CCN(CC(O)CON=C2CCc3c2ccc2ccccc32)CC1 (stereo not drawn) [Example 18, 3-{3-[4-(2-Hydroxyethyl)-1-piperazinyl]-2-hydroxypropoxyimino}-2,3-dihydro-1H-benz[e]indene]
LD50 at 168 h [1]: > 1000 mg/kg | inhibition in vivo at 2 mg/kg [3]: 59%

COc1ccccc1N1CCN(CC(O)CON=C2CCc3c2ccc2ccccc32)CC1 (stereo not drawn) [Example 19, 3-{3-[4-(2-Methoxyphenyl)-1-piperazinyl]-2-hydroxypropoxyimino}-2,3-dihydro-1H-benz[e]indene]
LD50 at 168 h [1]: > 1000 mg/kg | ED50 (spontaneous motility): 43 mg/kg | ED50 (hexobarbital narcosis): 67 mg/kg | ED50 [4]: 65 mg/kg

O=C(NC1CCCCC1)ON=C1CCc2c1ccc1ccccc21 [Example 22, 3-(O-Cyclohexylcarbamoyl)-oxime-2,3-dihydro-1H-benz[e]indene]
LD50 at 168 h [1]: > 1000 mg/kg | inhibition in vivo at 2 mg/kg [3]: 59%

CCN(CC)CC(=O)Nc1c(C)cccc1C [Lidocain, reference compound]
Local analgesic effect EC50 (nervus ischiadicus): 0.19%

CCCC(C)(COC(N)=O)COC(N)=O [Meprobamate, reference compound]
LD50 at 168 h [1]: 1350 mg/kg | ED50 (spontaneous motility): 232 mg/kg | ED50 (hexobarbital narcosis): 260 mg/kg | minimal effective dose (shocks tolerated): 25 mg/kg

CC(Cc1ccccc1)NCCC(c1ccccc1)c1ccccc1 (stereo not drawn) [Prenylamine, reference compound]
inhibition in vivo at 2 mg/kg [3]: 41% | ED50 ([3]; iv): 6.6 mg/kg

CSc1ccc2c(c1)N(CCC1CCCCN1C)c1ccccc1S2 (stereo not drawn) [Thioridazine]
ED50 ([2]; rat, dosing one hour before measurement): 108 mg/kg | Therapeutic index (Catalepsy MED / Conditioned Reflex ID50) (catalepsy): 0.7 | Catalepsy MED (catalepsy): 80 mg/kg

CN1C(=O)OC(C)(C)C1=O [Trimethadione, reference compound]
ED50 (pentetrazole spasm): 400 mg/kg
